Measurements: ChEMBL document CHEMBL1201862, “PubChem BioAssay data set” (2004)
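These data come from cells grown in 96-well plates and exposed to compound for 48 hours at five concentrations. Here, GI50 denotes the concentration required for 50% inhibition of growth.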 Calls of active or inactive are those of the source. No stated cut-off is given here; in the data, active = GI50 up to about 1.1 µM and inactive = higher.

How the values were obtained:
Assay in all cases: inhibition of tumour cell growth, NCI panel, 48 h
OVCAR-5 = system: OVCAR-5
NCI-H23 = system: NCI-H23
SK-MEL-2 = system: SK-MEL-2
NCI-H460 = system: NCI-H460
CAKI-1 = system: CAKI-1
OVCAR-8 = system: OVCAR-8
HT-29 = system: HT-29
RPMI-8226 = system: RPMI-8226
OVCAR-3 = system: OVCAR-3
LOX IMVI = system: LOX IMVI
SNB-19 = system: SNB-19
OVCAR-4 = system: OVCAR-4
COLO 205 = system: COLO 205
SK-MEL-28 = system: SK-MEL-28
SF-268 = system: SF-268
UO-31 = system: UO-31
HOP-92 = system: HOP-92

Measured: GI50

Cc1cc2c(c(C(=O)O)c1C)-c1cccc(F)c1C2=O
inactive: OVCAR-5 > 100 µM | NCI-H23 > 100 µM | SK-MEL-2 > 100 µM | NCI-H460 > 100 µM | CAKI-1 > 100 µM | OVCAR-8 > 100 µM | HT-29 > 100 µM | RPMI-8226 > 100 µM | OVCAR-3 > 100 µM | LOX IMVI > 100 µM | SNB-19 67.8 µM | OVCAR-4 > 100 µM | COLO 205 > 100 µM | SK-MEL-28 > 100 µM | SF-268 > 100 µM | UO-31 27 µM

Cc1ccccc1-n1c(=O)sc2c(=O)n(-c3ccccc3)c(=S)[nH]c21
inactive: OVCAR-5 95.5 µM | NCI-H23 > 100 µM | SK-MEL-2 > 100 µM | NCI-H460 > 100 µM | CAKI-1 > 100 µM | OVCAR-8 > 100 µM | HT-29 > 100 µM | RPMI-8226 > 100 µM | OVCAR-3 > 100 µM | HOP-92 > 100 µM | SNB-19 > 100 µM | OVCAR-4 > 100 µM | COLO 205 > 100 µM | SK-MEL-28 > 100 µM | SF-268 > 100 µM | UO-31 > 100 µM

N#Cc1cccc(NC(=O)c2ccc(C(=O)O)c(C(=O)c3ccc(C(=O)O)c(C(=O)Nc4cccc(C#N)c4)c3)c2)c1
inactive: OVCAR-5 > 100 µM | NCI-H23 > 100 µM | SK-MEL-2 > 100 µM | NCI-H460 > 100 µM | CAKI-1 > 100 µM | OVCAR-8 > 100 µM | HT-29 > 100 µM | RPMI-8226 > 100 µM | OVCAR-3 > 100 µM | LOX IMVI > 100 µM | HOP-92 > 100 µM | SNB-19 > 100 µM | OVCAR-4 > 100 µM | COLO 205 > 100 µM | SF-268 > 100 µM | UO-31 > 100 µM

c1ccc(NCn2cnc3ccccc32)cc1
inactive: OVCAR-5 > 100 µM | NCI-H23 > 100 µM | SK-MEL-2 > 100 µM | NCI-H460 > 100 µM | OVCAR-8 > 100 µM | HT-29 36.3 µM | RPMI-8226 25.9 µM | OVCAR-3 > 100 µM | LOX IMVI 8.18 µM | SNB-19 > 100 µM | OVCAR-4 > 100 µM | COLO 205 > 100 µM | SK-MEL-28 > 100 µM | SF-268 74.8 µM | UO-31 > 100 µM

COc1ccc2c(c1)[n+]([O-])c(-c1ccc(OC)c(OC)c1)c(N)[n+]2[O-]
inactive: OVCAR-5 > 100 µM | NCI-H23 21.2 µM | SK-MEL-2 92.3 µM | NCI-H460 49.4 µM | CAKI-1 32.1 µM | OVCAR-8 > 100 µM | HT-29 52.1 µM | RPMI-8226 > 100 µM | OVCAR-3 > 100 µM | LOX IMVI > 100 µM | SNB-19 83.2 µM | OVCAR-4 > 100 µM | COLO 205 18.7 µM | SK-MEL-28 25.4 µM | SF-268 35.2 µM | UO-31 > 100 µM

COC(=O)C(=O)C(C(=O)C(=O)Nc1ccc(F)cc1)c1nc2ccc([N+](=O)[O-])cc2nc1O (stereo unspecified)
inactive: OVCAR-5 > 100 µM | NCI-H23 > 100 µM | NCI-H460 > 100 µM | CAKI-1 > 100 µM | OVCAR-8 > 100 µM | HT-29 > 100 µM | RPMI-8226 > 100 µM | OVCAR-3 > 100 µM | LOX IMVI > 100 µM | HOP-92 > 100 µM | SNB-19 > 100 µM | OVCAR-4 > 100 µM | COLO 205 > 100 µM | SK-MEL-28 > 100 µM | SF-268 > 100 µM | UO-31 > 100 µM

COC(=O)C(=O)C(C(=O)C(=O)Nc1ccc(OC)cc1[N+](=O)[O-])c1nc2ccc([N+](=O)[O-])cc2nc1O (stereo unspecified)
inactive: OVCAR-5 > 100 µM | NCI-H23 > 100 µM | NCI-H460 > 100 µM | CAKI-1 > 100 µM | OVCAR-8 > 100 µM | HT-29 > 100 µM | RPMI-8226 > 100 µM | OVCAR-3 > 100 µM | LOX IMVI > 100 µM | HOP-92 > 100 µM | SNB-19 > 100 µM | OVCAR-4 > 100 µM | COLO 205 > 100 µM | SF-268 > 100 µM | UO-31 > 100 µM

CCOC(=O)C(=Cc1cc(OC)ccc1OC)C(=O)OCC
inactive: OVCAR-5 6.27 µM | NCI-H23 3.03 µM | SK-MEL-2 4.75 µM | NCI-H460 30.2 µM | CAKI-1 13.6 µM | OVCAR-8 4.72 µM | HT-29 3.85 µM | RPMI-8226 3.44 µM | OVCAR-3 10.7 µM | LOX IMVI 3.83 µM | HOP-92 3.2 µM | SNB-19 11.9 µM | OVCAR-4 7.89 µM | COLO 205 4.88 µM | SK-MEL-28 4.71 µM | SF-268 5.36 µM
